pIC50: −log10 of the molar value.
Columns and labels:
[1] = test system: HeLa human cervical tumor cells; assay: Proliferation assay (HeLa cell line); assay type: cell-based; settings: 96 h, 4 days incubation, crystal violet, read-out: Biological Assay 2: Proliferation assay (HeLa cell line) median IC50
[2] = test system: Bub1 kinase (pre-induced phospho-histone 2A); assay: H2A Abrogation-Assay (cell-based mechanistic assay, pre-treatment with Nocodazole); settings: Nocodazole 1 μg/ml 16 h, then test compound 1 h; read-out: Biological Assay 4.2: H2A Abrogation IC50
[3] = biological target: T1, catalytic domain of human Bub1 (amino acids 704-1085) (Homo sapiens, UniProt O43683); assay: Bub1 kinase assay (TR-FRET); assay type: biochemical; settings: 10 μM ATP, 60 min reaction, pH 7.5; read-out: Biological Assay 1: Bub1 kinase assay median IC50
T1 construct: catalytic domain of human Bub1 (amino acids 704-1085); His6 (N); made in house; host or cells: Hi5 insect cells

[4] = test system: Bub1 kinase (histone 2A phosphorylation); assay: H2A Formation-Assay (cell-based mechanistic assay, co-treatment with Nocodazole); settings: 16 h, Nocodazole 1 μg/ml together with test compound for 16 h; read-out: Biological Assay 4.1: H2A Formation IC50

T1 sequence (O43683 704-1085): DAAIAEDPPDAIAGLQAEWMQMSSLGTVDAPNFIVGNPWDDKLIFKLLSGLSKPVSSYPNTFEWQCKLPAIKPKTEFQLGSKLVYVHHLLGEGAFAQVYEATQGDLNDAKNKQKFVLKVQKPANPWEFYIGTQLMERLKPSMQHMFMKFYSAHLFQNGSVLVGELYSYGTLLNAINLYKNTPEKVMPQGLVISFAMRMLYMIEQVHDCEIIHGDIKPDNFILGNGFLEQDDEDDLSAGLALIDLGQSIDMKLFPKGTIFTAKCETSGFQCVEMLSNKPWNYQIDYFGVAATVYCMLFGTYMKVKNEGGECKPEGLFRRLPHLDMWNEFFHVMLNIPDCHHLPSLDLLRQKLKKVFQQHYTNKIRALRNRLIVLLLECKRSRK

SMILES	pIC50 [1]	pIC50 [2]	pIC50 [3]	pIC50 [4]
COc1cnc(-c2nn(Cc3c(F)cc(OCCO)cc3F)c3ccccc23)nc1Nc1ccnc(C)c1 [Example 2-1-2, 2-{3,5-difluoro-4-[(3-{5-methoxy-4-[(2-methylpyridin-4-yl)amino]pyrimidin-2-yl}-1H-indazol-1-yl)methyl]phenoxy}ethanol]	5.89	7.96	7.62	8.06
COc1cnccc1Nc1nc(-c2nn(Cc3c(F)cc(OCCO)cc3F)c3ccccc23)ncc1OC [Example 2-1-3, 2-{3,5-difluoro-4-[(3-{5-methoxy-4-[(3-methoxypyridin-4-yl)amino]pyrimidin-2-yl}-1H-indazol-1-yl)methyl]phenoxy}ethanol]	5.77	7.54	8.15	7.37
